# Test results from patent publication US10973831B2, “Fluoropiperidine compounds as pure 5-HT 6 receptor antagonists” (SUVEN LIFE SCIENCES LIMITED, priority 2017, dated 2021).
# Tests used:
# recombinant human 5-HT2A = target: T1, recombinant human 5-HT2A (Homo sapiens, UniProt P28223); assay: Determination of 5-HT2A binding ([3H]-Ketanserin radioligand, membranes); settings: human 5-HT2A membranes, [3H]-Ketanserin 1.75 nM
# T1 construct: purchased Perkin Elmer ES-313-M400UA
# Method: Membrane preparation from recombinant human 5-HT2A cell line (Cat no. ES-313-M400UA) and radio ligand Ketanserin Hydrochloride, [Ethylene-^3H]-(R-41468) (Cat no. NET791250UC) were purchased from Perkin Elmer. All other reagents used in buffer preparation were purchased from Sigma. The final ligand concentration was 1.75 nM; non-specific determinant was 1-NP [10 μM] and 5-HT2A membrane protein (5 μg/well). 1-NP was used as a positive control. Reactions were carried out in 67 mM Tris pH 7.6 containing 0.5 mM EDTA buffer for 60 minutes at 25° C. Reaction was stopped by rapid filtration followed by six washes of the binding mixture using 96 well harvest plate (Millipore Cat no. MSFBNXB50) pre coated with 0.33% polyethyleneimine. The plate was dried and the bound radioactivity collected on the filters was determined by scintillation counting using MicroBeta TriLux. Radio ligand binding in the presence of non-labeled compound was expressed as a percent of the total binding and plotted against the log concentration of the compound. Ki values were determined using a nonlinear, iterative curve-fitting computer program of Graph pad Prism 4 software.
# [1] = Rodent brain penetration study; assay type: in vivo, male Wistar rats; settings: male, Wistar, brain and plasma, po; rat, 3 mg/kg, p.o., brain-plasma ratio; read-out: Single dose rat brain penetration (Cb/Cp)
# Method: Male Wistar rats (260±40 grams) were used as experimental animals. Three animals were housed in each cage. Animals were given water and food ad libitum throughout the experiment and maintained on a 12 hours light/dark cycle.
# Brain penetration was determined in discrete manner in rats. One day prior to dosing day, male Wistar rats were acclimatized and randomly grouped according to their weight. At each time point (0.50, 1 and 2 hours) n=3 animals were used.
# The test compounds were suitably preformulated and administered orally at (free base equivalent) 3 mg/kg. Blood samples were collected via cardiac puncture by using isoflurane anesthesia. The animals were sacrificed to collect brain tissue. Plasma was separated and brain samples were homogenized and stored frozen at −20° C. until analysis. The concentrations of the test compounds in plasma and brain were determined using LC-MS/MS method.
# The test compounds were quantified in plasma and brain homogenate by qualified LC-MS/MS method using suitable extraction technique. The test compounds were quantified in the calibration range of 1-1000 ng/mL in plasma and brain homogenate. Study samples were analyzed using calibration samples in the batch and quality control samples spread across the batch. Extent of brain-plasma ratio (Cb/Cp) was calculated.
# Male Wistar rats = assay: Object recognition task model; assay type: in vivo; settings: rat, 0.1 mg/kg, p.o.
# Method: The cognition-enhancing properties of compounds of this invention were estimated using an animal model of cognition i.e., object recognition task.
# Male Wistar rats (˜230-280 grams) were used as experimental animals. Four animals were housed in each cage. Animals were kept on 20% food deprivation before one day and given water ad libitum throughout the experiment and maintained on a 12 hours light/dark cycle. The rats were habituated to individual arenas for […] in the absence of any objects.
# One group of 12 rats received vehicle (1 mL/kg) orally and another set of animals received compound of the formula (I) orally thirty minutes prior to familiar (T1) and choice trial (T2).
# The experiment was carried out in a 50×50×50 cm open field made up of acrylic. During the familiarization phase (T1), the rats were placed individually in the open field for 3 minutes, in which two identical objects (plastic bottles, 12.5 cm height×5.5 cm diameter) covered in yellow masking tape alone (a1 and a2) were positioned in two adjacent corners (10 cm from the walls). After 24 hours of the (T1) trial, the same rats were placed in the same arena as they were placed in T1 trial. During the choice phase (T2) rats were allowed to explore the open field for 3 minutes in presence of one familiar object (a3) and one novel object (b) (Amber color glass bottle, 12 cm high and 5 cm in diameter). During the T1 and T2 trial, explorations of each object (defined as sniffing, licking, chewing or having moving vibrissae whilst directing the nose towards the object at a distance of less than 1 cm) were recorded separately by stopwatch.
# T1 is the total time spent exploring the familiar objects (a1+a2).
# T2 is the total time spent exploring the familiar object and novel object (a3+b).
# [2] = test system: extracellular levels of acetylcholine in ventral hippocampus; assay: Acetylcholine modulation in ventral hippocampus (microdialysis); assay type: in vivo, male Wistar rats; settings: Example 1 10 mg/kg; for acetylcholine peak levels, % of pre-dose levels: p.o. in combination with donepezil 1 mg/kg, s.c.
# Excerpt: Four groups of male Wistar rats (240-300 g body weight) were stereotaxically implanted with a microdialysis guide cannula in ventral hippocampus (AP: −5.2 mm, ML: +5.0 mm, DV: −3.8 mm) under isoflurane anesthesia. Co-ordinates were taken according to atlas for the rat brain (Paxinos and Watson 2004) with reference points taken from bregma and vertical from the skull. […] After surgical recovery of 4-5 days, male Wistar rats were connected to dual quartz lined two-channel liquid swivel (Instech, UK) on a counter balance lever arm, which allowed unrestricted movements of the animal. […] On the day of study, probe was perfused with artificial cerebrospinal fluid (aCSF; NaCl 147 mM, KC13 mM, MgCl2 1 mM, CaCl2. 2H2O 1.3 mM, NaH2PO4.2H2O 0.2 mM and Na2HPO4.7H2O 1 mM, pH 7.2) at a flow rate of 1.5 μL/min and a stabilization period of 2 h was maintained. […] Dialysate samples were collected for an additional period of 4 h post treatment of example 1. Dialysates were stored below −50° C. prior to analysis. Acetylcholine in dialysate was quantified using LC-MS/MS method in the calibration range of 0.099 nmol/L-70.171 nmol/L. […] Incorrect probe placement was considered as criteria to reject the data from animal.
# T1 sequence (P28223 whole entry): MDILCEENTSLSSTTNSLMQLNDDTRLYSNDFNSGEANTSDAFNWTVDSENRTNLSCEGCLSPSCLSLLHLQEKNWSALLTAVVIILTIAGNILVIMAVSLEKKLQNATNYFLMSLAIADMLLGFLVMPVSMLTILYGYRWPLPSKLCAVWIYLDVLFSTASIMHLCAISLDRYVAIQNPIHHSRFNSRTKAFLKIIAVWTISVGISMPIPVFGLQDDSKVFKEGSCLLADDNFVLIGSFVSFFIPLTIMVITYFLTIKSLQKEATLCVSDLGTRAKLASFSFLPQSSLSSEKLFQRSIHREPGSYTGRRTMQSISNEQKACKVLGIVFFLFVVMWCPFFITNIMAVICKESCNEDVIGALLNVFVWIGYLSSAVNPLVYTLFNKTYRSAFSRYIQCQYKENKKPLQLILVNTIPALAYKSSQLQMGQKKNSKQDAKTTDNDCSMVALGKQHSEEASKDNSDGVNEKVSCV
compound,measurement,setting,value
"Cl.O=S(=O)(c1ccccc1)c1ccc2c(c1)OCCN2C1CCNCC1F (single isomer, unassigned; peak iii) [Example 1, 7-Phenylsulfonyl-4-(3-fluoropiperidin-4-yl)-3,4-dihydro-2H-benzo[1,4]oxazine hydrochloride (Peak III)]",Ki,recombinant human 5-HT2A,130 nM
same,Kp,[1],0.78 ± 0.2
same,"Exploration time mean ± S.E.M, Familiar object",Male Wistar rats; choice trial T2,7.03 ± 1.1 s
same,"Exploration time mean ± S.E.M, Novel object",Male Wistar rats; choice trial T2,12.16 ± 0.72 s
same,Inference,Male Wistar rats; object recognition task,Active
same,Mean area under the curve values (AUC) of percent change in acetylcholine,"[2]; p.o. + donepezil + memantine, compared to donepezil and memantine combination",significantly higher
same,Mean area under the curve values (AUC) of percent change in acetylcholine,"[2]; p.o. + donepezil, compared to donepezil 1 mg/kg, s.c. alone",significantly higher
same,"acetylcholine peak levels, % of pre-dose levels",[2],1445±247%
same,"acetylcholine peak levels, % of pre-dose levels",[2]; s.c. and memantine 1 mg/kg,2822±415%
